Test results: patent US11053190B2, “Alpha-aminoamide derivative compound and pharmaceutical composition comprising same” (NEUROBIOGEN CO., LTD., priority 2014, dated 2021)
Read-outs that look alike come from different tables or passages of the source.

Assays:
[1] = molecular target: T1, human-derived monoamine oxidase B (Homo sapiens, UniProt P27338); assay: Effect of inhibiting activity of monoamine oxidase B (MAO-B assay); format: biochemical; conditions: Amplex Red, benzylamine substrate
T1 sequence (P27338 1-520): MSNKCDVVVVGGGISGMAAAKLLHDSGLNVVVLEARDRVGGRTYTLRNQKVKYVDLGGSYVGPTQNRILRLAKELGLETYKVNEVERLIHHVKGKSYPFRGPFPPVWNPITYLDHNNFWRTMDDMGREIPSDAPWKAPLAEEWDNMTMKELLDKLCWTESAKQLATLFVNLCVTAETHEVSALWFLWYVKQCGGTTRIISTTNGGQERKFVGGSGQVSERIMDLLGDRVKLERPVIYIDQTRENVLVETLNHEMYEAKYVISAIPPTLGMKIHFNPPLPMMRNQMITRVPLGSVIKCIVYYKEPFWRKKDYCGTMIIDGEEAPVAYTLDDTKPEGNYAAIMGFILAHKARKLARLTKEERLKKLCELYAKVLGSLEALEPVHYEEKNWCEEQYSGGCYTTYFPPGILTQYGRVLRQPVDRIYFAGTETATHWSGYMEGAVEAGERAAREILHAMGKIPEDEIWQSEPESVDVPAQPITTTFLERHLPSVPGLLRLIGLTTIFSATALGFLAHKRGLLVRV

MAO-A = molecular target: T2, MAO-A (Homo sapiens, UniProt P21397); assay: MAO-A inhibition (Table 1); format: biochemical
T2 sequence (P21397 1-527): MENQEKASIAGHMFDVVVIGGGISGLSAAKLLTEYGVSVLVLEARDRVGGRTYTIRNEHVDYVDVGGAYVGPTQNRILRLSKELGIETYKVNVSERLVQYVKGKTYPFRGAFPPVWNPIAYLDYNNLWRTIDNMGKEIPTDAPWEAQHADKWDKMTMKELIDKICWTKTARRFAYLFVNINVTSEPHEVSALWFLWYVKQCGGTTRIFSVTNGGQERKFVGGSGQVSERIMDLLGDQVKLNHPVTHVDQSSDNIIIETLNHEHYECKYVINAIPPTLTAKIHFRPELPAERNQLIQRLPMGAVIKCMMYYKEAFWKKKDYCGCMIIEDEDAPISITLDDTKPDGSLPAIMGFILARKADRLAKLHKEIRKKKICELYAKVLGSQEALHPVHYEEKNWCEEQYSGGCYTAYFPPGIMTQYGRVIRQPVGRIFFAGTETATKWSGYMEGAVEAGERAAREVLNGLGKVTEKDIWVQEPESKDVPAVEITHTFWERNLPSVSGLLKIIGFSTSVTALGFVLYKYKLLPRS

obesity model mouse = assay: HFD (high-fat diet) mouse model of obesity; format: in vivo
Method: 7-week-old mice were divided into 2 groups and were given a normal diet (white, chow) and a high-fat diet (blue, HFD), respectively, for 8 weeks.
The total calorie provided to the normal diet mice and the high-fat diet mice was set to be equal. The average body weight of the normal diet group was measured to be […] at 8 weeks, with about 20% increase from the initial weight of […]. In contrast, the average body weight of the high-fat diet almost doubled to about […].
In addition to the increase in reactive astrocytes, overproduction of γ-aminobutyric acid (GABA) was also detected.

[2] = system: DGGCs (dentate gyrus granule cells) of the hippocampus; assay: Inhibition of channel excitability, electrophysiology; format: cell-based; conditions: FIG. 4
Source text: In order to investigate the channel inhibitory effect, inhibition of channel excitability was investigated electrophysiologically using DGGCs (dentate gyrus granule cells) of the hippocampus.

APP/PS1 mouse [3] = assay: APP/PS1 mouse model of Alzheimer's disease, spike probability of dentate gyrus granule cells; format: in vivo; conditions: 2 weeks in drinking water
[4] = molecular target: T1, human-derived monoamine oxidase B; assay: Confirmation of reversible inhibitory effect (washing in centrifugal filter); format: biochemical
[5] = system: dopaminergic neurons in the substantia nigra and the corpus striatum; assay: MPTP mouse model of Parkinson's disease, TH (tyrosine hydroxylase) immunohistochemistry; format: in vivo; conditions: for dopaminergic neuron survivability (TH expression), pre-treatment: from one day before MPTP 20 mg/kg i.p., FIG. 2a
APP/PS1 mouse [6] = conditions: Jo et al., Nature Medicine 2014, cited from earlier work
[7] = 10 mg/kg oral, treated from day 3 after MPTP, FIG. 2b
[8] = administration for 30 days, FIG. 2c

C[C@H](NCc1ccc(-c2ccccc2F)cc1)C(N)=O [Example 1, (S)-2-(((2′-fluorobiphenyl-4-yl)methyl)amino) propanamide methanesulfonate]
IC50 [1]: > 10 µM

C[C@H](NCc1ccc(-c2cccc(F)c2)cc1)C(N)=O [Example 2, (S)-2-(((3′-fluorobiphenyl-4-yl)methyl)amino) propanamide methanesulfonate]
IC50 [1]: > 10 µM

C[C@H](NCc1ccc(-c2ccc(F)cc2)cc1)C(N)=O [Example 3, (S)-2-(((4′-fluorobiphenyl-4-yl)methyl)amino) propanamide methanesulfonate]
IC50 [1]: > 10 µM

C[C@H](NCc1ccc(-c2ccccc2Cl)cc1)C(N)=O [Example 4, (S)-2-(((2′-chlorobiphenyl-4-yl)methyl)amino) propanamide methanesulfonate]
IC50 [1]: > 10 µM | IC50 (MAO-A): > 100 µM

C[C@H](NCc1ccc(-c2cccc(Cl)c2)cc1)C(N)=O [Example 5, (S)-2-(((3′-chlorobiphenyl-4-yl)methyl)amino) propanamide methanesulfonate]
IC50 [1]: 0.442 µM | IC50 (MAO-A): > 100 µM

C[C@H](NCc1ccc(-c2ccc(Cl)cc2)cc1)C(N)=O [Example 6, (S)-2-(((4′-chlorobiphenyl-4-yl)methyl)amino) propanamide methanesulfonate]
IC50 [1]: 0.416 µM | IC50 (MAO-A): > 100 µM

C[C@H](NCc1ccc(-c2ccc(C(F)(F)F)cc2)cc1)C(N)=O [Example 9, (S)-2-(((4′-trifluoromethylbiphenyl-4-yl)methyl)amino) propanamide methanesulfonate]
body weight increase due to high-fat diet (obesity model mouse; 10 mg/kg/day and 100 mg/kg/day groups, FIG. 8): inhibited body weight increase due to the intake of the high-fat diet in a concentration-dependent manner | amount of food intake (obesity model mouse; high-fat diet mice, FIG. 8): no difference in the amount of food intake | GFAP (biomarker for reactive astrocytes) in the arcuate nucleus (obesity model mouse; high-fat diet mice, FIG. 9): Remarkable decrease in GFAP | overproduction of GABA in the arcuate nucleus (obesity model mouse; high-fat diet mice, FIG. 9): effective inhibition of the overproduction of GABA | excitability inhibitory effect ([2]; 10 μM): almost no inhibitory effect | excitability inhibitory effect ([2]; 50 μM): lower inhibitory effect than safinamide | efficacy (spike probability) compared with safinamide (APP/PS1 mouse [3]): higher than that of safinamide | spike probability depending on stimulus intensity (APP/PS1 mouse [3]; FIG. 3b): superior efficacy was observed | Reversibility ([4]; 1 μM): Reversible | Recovered MAO-B activity ([4]; 1 μM, after washing): >85% | inhibition at 1 µM ([4]; after centrifugal filter and washing with buffer (B), read-out: B. MAO-B inhibition effect): < 15% | inhibition at 1 µM ([4]; without washing (A), read-out: A. MAO-B inhibition effect): 82% | dopaminergic neuron survivability (TH expression), pre-treatment ([5]; 10 mg/kg oral): dopaminergic neuron survivability comparable to that of the control group | death of dopaminergic neurons, post-treatment [5, 7]: significantly decreased death of the neurons | recovery of dopaminergic neurons in the substantia nigra, post-treatment ([5]; 10 mg/kg oral, treated from day 3 after MPTP, substantia nigra, FIG. 2b): recovered the dopaminergic neurons in the substantia nigra to a level comparable to that of the control group not treated with MPTP | protection of dopaminergic neurons in the corpus striatum, 30-day administration [5, 8]: protected dopaminergic neurons to a level comparable to that of the control group not treated with MPTP | protection of dopaminergic neurons in the substantia nigra, 30-day administration ([5]; administration for 30 days, substantia nigra, FIG. 2c): protected neurons similarly to the control group | overall efficacy in the three tests on the MPTP mouse model ([5]; compared with selegiline and safinamide): superior efficacy as compared to selegiline and safinamide | IC50 (MAO-A): > 500 µM

C[C@H](NCc1ccc(-c2cccc(OC(F)(F)F)c2)cc1)C(N)=O [Example 10, (S)-2-(((3′-trifluoromethoxybiphenyl-4-yl)methyl)amino)propanamide methanesulfonate]
IC50 [1]: 0.216 µM | IC50 (MAO-A): > 100 µM

C[C@H](NCc1ccc(-c2ccc(OC(F)(F)F)cc2)cc1)C(N)=O [Example 11, (S)-2-(((4′-trifluoromethoxybiphenyl-4-yl)methyl)amino)propanamide methanesulfonate]
IC50 [1]: 0.098 µM | IC50 (MAO-A): > 100 µM

COc1cccc(-c2ccc(CN[C@@H](C)C(N)=O)cc2)c1 [Example 12, (S)-2-(((3′-methoxybiphenyl-4-yl)methyl)amino)propanamide methanesulfonate]
IC50 [1]: 3.33 µM | IC50 (MAO-A): > 100 µM

COc1ccc(-c2ccc(CN[C@@H](C)C(N)=O)cc2)cc1 [Example 13, (S)-2-(((4′-methoxybiphenyl-4-yl)methyl)amino)propanamide methanesulfonate]
IC50 [1]: 1.06 µM | IC50 (MAO-A): > 100 µM

C[C@@H](NCc1ccc(-c2cccc(F)c2)cc1)C(N)=O [Example 14, methanesulfonate]
IC50 [1]: > 10 µM | IC50 (MAO-A): > 100 µM

C[C@@H](NCc1ccc(-c2ccc(C(F)(F)F)cc2)cc1)C(N)=O [Example 15, (R)-2-(((4′-trifluoromethylbiphenyl-4-yl)methyl)amino)propanamide methanesulfonate]
IC50 (MAO-A): > 100 µM

NC(=O)CNCc1ccc(-c2ccc(C(F)(F)F)cc2)cc1 [Example 16, (R)-2-(((4′-trifluoromethylbiphenyl-4-yl)methyl)amino)acetamide methanesulfonate]
IC50 [1]: 0.126 µM | IC50 (MAO-A): > 100 µM

CC(C)[C@@H](NCc1ccc(-c2ccc(C(F)(F)F)cc2)cc1)C(N)=O [Example 17, (R)-3-methyl-2-(((4′-trifluoromethylbiphenyl-4-yl)methyl)amino)butanamide methanesulfonate]
IC50 [1]: 4.07 µM | IC50 (MAO-A): > 100 µM

CC(C)C[C@@H](NCc1ccc(-c2ccc(C(F)(F)F)cc2)cc1)C(N)=O [Example 18, (R)-4-methyl-2-(((4′-trifluoromethylbiphenyl-4-yl)methyl)amino)pentanamide methanesulfonate]
IC50 [1]: 5.3 µM | IC50 (MAO-A): > 100 µM

C[C@H](NCc1ccc(OCc2cccc(F)c2)cc1)C(N)=O [S-Safinamide, Safinamide, reference compound]
inhibition at 10 µM ([2]; 10 μM, read-out: excitability inhibitory effect): ~40% | dopaminergic neuron survivability (TH expression), pre-treatment ([5]; 10 mg/kg oral): dopaminergic neuron survivability comparable to that of the control group | death of dopaminergic neurons, post-treatment [5, 7]: significantly decreased death of the neurons | protection of dopaminergic neurons in the corpus striatum, 30-day administration [5, 8]: slightly lower efficacy | efficacy in the Alzheimer's disease model after 2 weeks (APP/PS1 mouse [6]): maintains excellent efficacy

C#CCN(C)[C@H](C)Cc1ccccc1 [Selegiline]
efficacy in the Alzheimer's disease model after 2 weeks (APP/PS1 mouse [6]): the efficacy decreases greatly | efficacy in the Alzheimer's disease model after 4 weeks (APP/PS1 mouse [6]; after 4 weeks): no efficacy is observed | efficacy in the Alzheimer's disease model, initially (APP/PS1 mouse [6]; initial): excellent efficacy initially
